For 23 molecules, IC50 results are on record in patent publication US20260297080A1, “BICYCLIC COMPOUNDS AS CDK INHIBITORS” (BeOne Medicines I GmbH, priority 2022, published 2026).

The target of one test is CDK2/Cyclin E1 (Homo sapiens, UniProt P24941). The test is described as follows: CDK2/Cyclin E1 Biochemical Assay (TR-FRET), 0.060 mM ATP. Conditions: 0.15 μM Rb (Ser780)-biotin substrate, pH7.0, 60 min preincubation, 120 min reaction, room temperature. The method, boiled down: (§1)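 TR-FRET assay with 0.15 μM Rb (Ser780)-biotin substrate and 0-10 μM compound in 50 mM HEPES pH7.0, 50 mM MgCl2, 1 mM DTT. ATP was 0.060 mM for CDK2/Cyclin E1 and 0.015 mM for CDK1/Cyclin B1. Kinase was preincubated with compound 60 min, reacted 120 min at room temperature, and IC50 was fitted (four-parameter) from the 665/620 nm ratio.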
(TR-FRET usually uses a lanthanide donor and a delayed reading to cut background.)

In a further test the target is CDK1/Cyclin B1 (Homo sapiens, UniProt P06493). Put plainly: CDK1/Cyclin B1 Biochemical Assay (TR-FRET), 0.015 mM ATP. The settings on record: 0.15 μM Rb (Ser780)-biotin substrate, pH7.0, 60 min preincubation, 120 min reaction, room temperature. The method, boiled down:
as §1

Sequence of CDK1/Cyclin B1 (P06493 whole entry): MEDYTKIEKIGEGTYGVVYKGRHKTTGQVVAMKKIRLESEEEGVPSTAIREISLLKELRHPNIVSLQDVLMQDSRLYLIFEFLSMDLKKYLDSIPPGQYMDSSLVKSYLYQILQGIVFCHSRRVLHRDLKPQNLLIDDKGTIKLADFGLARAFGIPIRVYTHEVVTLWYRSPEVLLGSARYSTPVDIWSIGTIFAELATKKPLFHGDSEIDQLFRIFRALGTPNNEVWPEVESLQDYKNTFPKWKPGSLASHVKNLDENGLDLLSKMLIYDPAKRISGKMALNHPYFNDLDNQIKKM
Sequence of CDK1/Cyclin B1 (P14635 whole entry partner): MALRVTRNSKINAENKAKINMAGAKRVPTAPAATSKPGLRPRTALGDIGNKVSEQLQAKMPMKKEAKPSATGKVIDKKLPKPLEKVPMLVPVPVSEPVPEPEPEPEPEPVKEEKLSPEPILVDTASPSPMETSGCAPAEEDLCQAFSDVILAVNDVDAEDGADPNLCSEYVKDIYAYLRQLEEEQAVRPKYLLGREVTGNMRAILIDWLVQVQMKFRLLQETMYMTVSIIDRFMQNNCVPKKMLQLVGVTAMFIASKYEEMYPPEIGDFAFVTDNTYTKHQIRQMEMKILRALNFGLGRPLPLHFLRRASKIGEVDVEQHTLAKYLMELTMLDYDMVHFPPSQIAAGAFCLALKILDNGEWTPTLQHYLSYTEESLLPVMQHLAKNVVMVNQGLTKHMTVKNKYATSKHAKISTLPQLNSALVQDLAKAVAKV

In general, IC50 refers to the concentration that gives 50% inhibition. High values mean weaker potency, low ones greater potency. As to `CC(C)NC(=O)O[C@H]1CC[C@@H](c2cc(Nc3ccc4c(c3F)CN(CCN(C)C)S4(=O)=O)n[nH]2)C1` (relative stereo) [Example 74, cis-3-(3-((2-(2-(dimethylamino)ethyl)-4-fluoro-1,1-dioxido-2,3-dihydrobenzo[d]isothiazol-5-yl)amino-1H-pyrazol-5-yl)cyclopentyl isopropylcarbamate], the half-inhibitory concentration (IC50) turned out to be 16 nM on CDK2/Cyclin E1 and 962 nM against CDK1/Cyclin B1.
On the same counts, the results for `CC(C)NC(=O)O[C@H]1CC[C@@H](c2cc(Nc3ccc4c(c3)C(F)(F)S(=O)(=O)N4)n[nH]2)C1` (relative stereo) [Example 334, cis-3-(3-((3,3-difluoro-2,2-dioxido-1,3-dihydrobenzo[c]isothiazol-5-yl)amino)-1H-pyrazol-5-yl)cyclopentyl isopropylcarbamate] are 84 nM and 899 nM.
On the same counts, the results for `CC(C)NC(=O)O[C@H]1CC[C@@H](c2cc(Nc3cc4c(cc3F)S(=O)(=O)N(C)C4)n[nH]2)C1` (relative stereo) [Example 45, cis-3-(3-((6-fluoro-2-methyl-1,1-dioxido-2,3-dihydrobenzo[d]isothiazol-5-yl)amino)-1H-pyrazol-5-yl)cyclopentyl isopropylcarbamate] are 181 nM and 6010 nM.
On the same counts, the results for `CCCNC(=O)O[C@@H]1CC[C@H](c2cc(Nc3ccc4c(c3F)CS(=O)(=O)N4CC(F)(F)F)n[nH]2)C1` [Example 266a] are 3.3 nM and 96 nM.
Take `CC(NC(=O)O[C@H]1CC[C@@H](c2cc(Nc3ccc4c(c3F)CN(C3CC3)S4(=O)=O)n[nH]2)C1)C1COC1` (relative stereo) [Example 357, cis-3-(3-((2-cyclopropyl-4-fluoro-1,1-dioxido-2,3-dihydrobenzo[d]isothiazol-5-yl)amino)-1H-pyrazol-5-yl)cyclopentyl(1-(oxetan-3-yl)ethyl)carbamate]: the IC50 against CDK2/Cyclin E1 worked out at 23 nM; on CDK1/Cyclin B1 it was 817 nM.
On the same counts, the results for `CN1c2ccc(Nc3cc([C@@H]4CC[C@H](OC(=O)NC5CCC5)C4)[nH]n3)cc2CS1(=O)=O` (single isomer, unassigned) [Example 227b, cis-3-(3-((1-methyl-2,2-dioxido-1,3-dihydrobenzo[c]isothiazol-5-yl)amino)-1H-pyrazol-5-yl)cyclopentyl cyclobutylcarbamate] are 1.3 nM and 45 nM.
For the molecule `CC(C)NC(=O)O[C@H]1CC[C@@H](c2cc(Nc3ccc4c(c3F)CS(=O)(=O)N4C)n[nH]2)C1` (single isomer, unassigned) [Example 255b, cis-3-(3-((4-fluoro-1-methyl-2,2-dioxido-1,3-dihydrobenzo[c]isothiazol-5-yl)amino)-1H-pyrazol-5-yl)cyclopentyl isopropylcarbamate], the values for the IC50 against CDK2/Cyclin E1 and against CDK1/Cyclin B1 were 5.2 nM and 149 nM, respectively.
On to `CC(C)NC(=O)O[C@H]1CC[C@@H](c2cc(Nc3ccc4c(c3)CS(=O)(=O)N4CC3CN(C)C3)n[nH]2)C1` (relative stereo) [Example 213, cis-3-(3-((1-((1-methylazetidin-3-yl)methyl)-2,2-dioxido-1,3-dihydrobenzo[c]isothiazol-5-yl)amino)-1H-pyrazol-5-yl)cyclopentyl isopropylcarbamate], for which the IC50 was determined as 2.7 nM on CDK2/Cyclin E1 and 30 nM against CDK1/Cyclin B1.
In the same order, the values of `CC1(NC(=O)O[C@H]2CC[C@@H](c3cc(Nc4ccc5c(c4)CCS(=O)(=O)N5)n[nH]3)C2)CC1` (single isomer, unassigned) [Example 249b, cis-3-(3-((2,2-dioxido-3,4-dihydro-1H-benzo[c][1,2]thiazin-6-yl)amino)-1H-pyrazol-5-yl)cyclopentyl(1-methylcyclopropyl)carbamate] are 0.6 nM and 12 nM.
In the same order, the values of `CC(C)NC(=O)O[C@H]1CC[C@@H](c2cc(Nc3cc4c(cc3F)N(C3COC3)S(=O)(=O)C4)n[nH]2)C1` (relative stereo) [Example 301, cis-3-(3-((6-fluoro-1-(oxetan-3-yl)-2,2-dioxido-1,3-dihydrobenzo[c]isothiazol-5-yl)amino)-1H-pyrazol-5-yl)cyclopentyl isopropylcarbamate] are 12 nM and 404 nM.
In the same order, the values of `Cc1cc2c(cc1Nc1cc([C@@H]3CC[C@H](OC(=O)NC(C)C)C3)[nH]n1)CS(=O)(=O)N2` (relative stereo) [Example 241, 3-(3-((6-methyl-2,2-dioxido-1,3-dihydrobenzo[c]isothiazol-5-yl)amino)-1H-pyrazol-5-yl)cyclopentyl isopropylcarbamate] are 128 nM and 4470 nM.
As for `CC1(NC(=O)O[C@H]2CC[C@@H](c3cc(Nc4ccc5c(c4F)CS(=O)(=O)N5)n[nH]3)C2)CCOCC1` (relative stereo) [Example 402, cis-3-(3-((4-fluoro-2,2-dioxido-1,3-dihydrobenzo[c]isothiazol-5-yl)amino)-1H-pyrazol-5-yl)cyclopentyl(4-methyltetrahydro-2H-pyran-4-yl)carbamate], the IC50 amounted to 5.1 nM at CDK2/Cyclin E1 and 101 nM against CDK1/Cyclin B1.
On the same counts, the results for `CC(C)NC(=O)O[C@H]1CC[C@@H](c2cc(Nc3ccc4c(c3F)CN(C3CCN(S(C)(=O)=O)C3)S4(=O)=O)n[nH]2)C1` (relative stereo) [Example 85, cis-3-(3-((4-fluoro-2-(1-(methylsulfonyl)pyrrolidin-3-yl)-1,1-dioxido-2,3-dihydrobenzo[d]isothiazol-5-yl)amino)-1H-pyrazol-5-yl)cyclopentyl isopropylcarbamate] are 4.6 nM and 470 nM.
On the same counts, the results for `CC(C)NC(=O)O[C@H]1CC[C@@H](c2cc(Nc3cc4c(cc3F)CNS4(=O)=O)n[nH]2)C1` (single isomer, unassigned) [Example 1a, cis-3-(3-((5-fluoro-1,1-dioxido-2,3-dihydrobenzo[d]isothiazol-6-yl)amino)-1H-pyrazol-5-yl)cyclopentyl isopropylcarbamate] are 22 nM and 860 nM.
For the molecule `CC(C)NC(=O)O[C@H]1CC[C@@H](c2cc(Nc3ccc4c(c3F)CN(C3CCCN(C)C3)S4(=O)=O)n[nH]2)C1` (relative stereo) [Example 61, cis-3-(3-((4-fluoro-2-(1-methylpiperidin-3-yl)-1,1-dioxido-2,3-dihydrobenzo[d]isothiazol-5-yl)amino)-1H-pyrazol-5-yl)cyclopentyl isopropylcarbamate], the IC50 against CDK2/Cyclin E1 was determined as 10 nM; against CDK1/Cyclin B1, 836 nM.
Turning to `CCCNC(=O)O[C@H]1CC[C@@H](c2cc(Nc3ccc4c(c3F)CN(C3CC3)S4(=O)=O)n[nH]2)C1` (single isomer, unassigned) [Example 118b, cis-3-(3-((2-cyclopropyl-4-fluoro-1,1-dioxido-2,3-dihydrobenzo[d]isothiazol-5-yl)amino)-1H-pyrazol-5-yl)cyclopentyl propylcarbamate], the IC50 against CDK2/Cyclin E1 was 8 nM; on CDK1/Cyclin B1, 168 nM.
Consider `CC[C@H](C)NC(=O)O[C@H]1CC[C@@H](c2cc(Nc3ccc4c(c3F)CS(=O)(=O)N4C)n[nH]2)C1` (relative stereo) [Example 258, cis-3-(3-((4-fluoro-1-methyl-2,2-dioxido-1,3-dihydrobenzo[c]isothiazol-5-yl)amino)-1H-pyrazol-5-yl)cyclopentyl((S)-sec-butyl)carbamate], for which the values for the IC50 at CDK2/Cyclin E1 and against CDK1/Cyclin B1 were 1.5 nM and 37 nM, respectively.
On the same counts, the results for `CN1c2ccc(Nc3cc([C@@H]4CC[C@H](OC(=O)NC5CC6(CCC6)C5)C4)[nH]n3)cc2CS1(=O)=O` (relative stereo) [Example 224, cis-3-(3-((1-methyl-2,2-dioxido-1,3-dihydrobenzo[c]isothiazol-5-yl)amino)-1H-pyrazol-5-yl)cyclopentyl spiro[3.3]heptan-2-ylcarbamate] are 29 nM and 2580 nM.
In the same order, the values of `COc1cc2c(cc1Nc1cc([C@@H]3CC[C@H](OC(=O)NC(C)C)C3)[nH]n1)S(=O)(=O)NC2(C)C` (relative stereo) [Example 183, cis-3-(3-((5-methoxy-3,3-dimethyl-1,1-dioxido-2,3-dihydrobenzo[d]isothiazol-6-yl)amino)-1H-pyrazol-5-yl)cyclopentyl isopropylcarbamate] are 1390 nM and 7570 nM.
On the same counts, the results for `[2H]C([2H])([2H])N1Cc2c(ccc(Nc3cc([C@@H]4CC[C@H](OC(=O)NC(C)C)C4)[nH]n3)c2F)S1(=O)=O` (single isomer, unassigned) [Example 129b, cis-3-(3-((4-fluoro-2-(methyl-d3)-1,1-dioxido-2,3-dihydrobenzo[d]isothiazol-5-yl)amino)-1H-pyrazol-5-yl)cyclopentyl isopropylcarbamate] are 2.6 nM and 185 nM.
For the molecule `CC(C)NC(=O)O[C@H]1CC[C@@H](c2cc(Nc3ccc4c(c3)CS(=O)(=O)N4)n[nH]2)C1` (single isomer, unassigned) [Example 7b], the results for the IC50 against CDK2/Cyclin E1 and on CDK1/Cyclin B1 were 0.9 nM and 17 nM, respectively.
As to `[2H]C([2H])([2H])N1Cc2c(ccc(Nc3cc([C@@H]4CC[C@H](OC(=O)N[C@@H](C)CC)C4)[nH]n3)c2F)S1(=O)=O` (relative stereo) [Example 131, cis-3-(3-((4-fluoro-2-(methyl-d3)-1,1-dioxido-2,3-dihydrobenzo[d]isothiazol-5-yl)amino)-1H-pyrazol-5-yl)cyclopentyl((S)-sec-butyl)carbamate], the figures for the IC50 against CDK2/Cyclin E1 and against CDK1/Cyclin B1 were 1.4 nM and 152 nM, respectively.
In the same order, the values of `CC(C)NC(=O)O[C@H]1CC[C@@H](c2cc(Nc3cc4c(cc3F)S(=O)(=O)NC4)n[nH]2)C1` (single isomer, unassigned) [Example 12b, cis-3-(3-((6-fluoro-1,1-dioxido-2,3-dihydrobenzo[d]isothiazol-5-yl)amino)-1H-pyrazol-5-yl)cyclopentyl isopropylcarbamate] are 9.3 nM and 359 nM.
